Patent US8629163B2, “Tetrakis-quaternary ammonium salts and methods for modulating neuronal nicotinic acteylcholine receptors” (University of Kentucky Research Foundation, priority 2007, dated 2014)

What was measured:
[1] = molecular target: T1, α4β2 neuronal nicotinic acetylcholine receptors (Rattus norvegicus, UniProt P09483+P12390); test: Inhibition of [^3H]nicotine (NIC) binding to rat brain membranes; conditions: % inhibition at 100 nM analog; 3 nM [^3H]NIC; nonspecific 10 μM cytisine; 3-4 independent experiments
T1 construct: The brain tissue was homogenized with a Tekmar Polytron; from tissue; host or cells: rat brain membranes (whole brain without cortex and cerebellum)
Description: (§1) Rat brain was dissected into the whole brain tissue without cortex and cerebellum and was frozen in liquid nitrogen and stored at −70° C. until use. The brain tissue was homogenized with a Tekmar Polytron (setting 40) in 20 volumes of ice-cold hypotonic buffer (2 mM HEPES, 14.4 mM NaCl, 0.15 mM KCl, 0.2 mM CaCl2 and […], pH=7.5). The homogenate was centrifuged at 25,000×g for 17 minutes at 4° C. The pellet was resuspended in 20 volumes of the same buffer, and incubated for 10 min at 37° C. The resuspension was cooled to 4° C. and then centrifuged at the above parameters. The pellet was resuspended by sonicaton and centrifuged using the same conditions. The final pellet was stored at −20° C. under 10 ml of the incubation buffer and was suspended just before incubation with radioligand.
(§2) The binding of [^3H]NIC and [^3H]MLA to probe α4β2 and α7-type neuronal nicotinic acetylcholine receptors, respectively, was determined using [^3H]NIC (67 Ci/mmol) and [^3H]MLA (60 Ci/mmol), purchased from Perkin Elmer Life Sciences, Boston, Mass., U.S.A. and American Radiolabel Chemicals, Inc., St. Louis, Mo., U.S.A. Binding was performed in duplicate, in a final volume of 250 μl of the incubation medium, containing 20 mM HEPES, 144 mM NaCl, 1.5 mM KCl, 2 mM CaCl2, and 1 mM MgSO4, pH=7.5. Reaction was initiated by the addition of 100 μL of membrane suspension to the samples containing a desired concentration of test compounds and 3 nM [^3H]NIC or 3 nM [^3H]MLA (final concentrations) and incubated for 60 min at room temperature. Total binding was measured in the absence of unlabelled ligand and nonspecific binding was determined in the presence of 10 μM cytisine, for [^3H]NIC binding, and 10 μM nicotine for [^3H]MLA. The binding reaction was terminated by dilution of samples with 3 mL of ice-cold incubation buffer followed by immediate filtration through Unifilter-96 GFB-filter plates presoaked in 0.5% polyethylenimine using a Filtermate Harvester (Perkin Elmer, Shelton, Conn., U.S.A.). Filters were rinsed five times with 350 μL of ice-cold buffer, and then filter plates were dried at 48° C. for 60 min, bottom sealed and each well filled with 40 μL of Packard Microscint-20 cocktail. After 60 min of gentle shaking, the filter plates were top sealed and radioactivity measured using a Packard TopCount NXT scintillation counter. CPMs were processed through a Packard Windows NT operating system. Protein was measured using the Bradford dye-binding procedure with bovine serum albumin as the standard.
(§3) The ability of a probe concentration of 100 nM of the tetrakis-quaternary ammonium salts to inhibit specific binding was evaluated.
(§4) ^aData are % inhibition at 100 nM concentration of analog for 3-4 independent experiments. Specific binding in the [^3H]NIC binding assay is calculated as the difference between the total binding of 3 nM [^3H]NIC and nonspecific binding in the presence of 10 μM cytisine. Specific binding for the [^3H]MLA binding assay is calculated as the difference between the total binding of 3 nM [^3H]MLA to the receptors alone and its nonspecific binding in the presence of 10 μM nicotine. Analog-induced inhibition of nicotine-evoked [^3H]DA release is calculated as a percent of that in the absence of analog.

[2] = molecular target: T2, α7-type neuronal nicotinic acetylcholine receptors (Rattus norvegicus, UniProt Q05941); test: Inhibition of [^3H]methyllycaconitine (MLA) binding to rat brain membranes; conditions: % inhibition at 100 nM analog; 3 nM [^3H]MLA; nonspecific 10 μM nicotine; 3-4 independent experiments
T2 construct: The brain tissue was homogenized with a Tekmar Polytron; from tissue; host or cells: rat brain membranes (whole brain without cortex and cerebellum)
Description: as §1, §2, §3, §4

rat striatal slices = test: Nicotine-evoked [^3H]dopamine release (overflow) from superfused rat striatal slices; type: cell-based; conditions: % inhibition at 100 nM analog; 10 μM S(-)nicotine; rat striatal slices; read-out: Inhibition of Nicotine-evoked [^3H]DA release
Description: Rat striatal slices (500 μm thickness, 6 mg wet weight) were incubated for 30 minutes in Krebs buffer (118 mM NaCl, 4.7 mM KCl, 1.2 mM MgCl2, 1.0 mM NaH2PO4, 1.3 mM CaCl2, 11.1 mM glucose, 25 mM NaHCO3, 0.11 mM L-ascorbic acid, and 0.004 mM disodium EDTA; pH 7.4, and saturated with 95% O2/5% CO2) in a metabolic shaker at 34° C. Slices were rinsed with 15 mL of fresh buffer and incubated for an additional 30 minutes in fresh buffer containing 0.1 μM [^3H]dopamine (DA; 6 slices/3 mL). Subsequently, slices were rinsed with 15 mL of fresh buffer and each slice transferred to a superfusion chamber. Slices were superfused (0.6 mL/min) for 60 minutes with Krebs buffer containing nomifensine (10 μM) and pargyline (10 μM) and maintained at 34° C., pH 7.4, with continual aeration (95% O2/5% CO2). Two 4-minute samples (2.4 mL each) were collected to determine basal outflow of [^3H]DA. Slices were superfused for 36 min following addition of the analogs to the superfusion buffer after the collection of the second sample and nine 4-minute samples were collected. For initial probe assays, the concentration of analog was 100 nM. For concentration-response studies, the concentration of analog varied from 1 nM to 10 μM, and the effect of each concentration was determined using striatal slices obtained from an individual animal (repeated measures design). Subsequently, S(−)nicotine (10 μM) was added to the buffer and nine additional 4-minute samples were collected. At the end of the experiment, each slice was solubilized and the [^3H] content of the tissue determined.
Radioactivity in the superfusate and tissue samples was determined by liquid scintillation spectroscopy. Fractional release for tritium collected in each sample was divided by the total tritium present in the tissue at the time of sample collection and was expressed as a percentage of total tritium. Basal [^3H]outflow was calculated from the average of the tritium collected in the two […] samples just before addition of the analog. The sum of the increase in collected tritium resulting from either exposure to the test compound or exposure to S(−)nicotine in the absence and presence of the test compound equaled total [^3H]overflow. [^3H]Overflow was calculated by subtracting the [^3H]outflow during an equivalent period of prestimulation from the values in samples collected during and after drug exposure. Inasmuch as the radiolabelled compounds were not separated and identified, the tritium collected in superfusate is referred to as either [^3H]outflow or [^3H]overflow, rather than as [^3H]DA. [^3H]Overflow primarily represents [^3H]DA in the presence of nomifensine and pargyline in the superfusion buffer. […]
Analogs were also evaluated for their ability to inhibit NIC evoked [^3H]DA release. Antagonist activity was evaluated by comparing the NIC-evoked [^3H]overflow in the absence and presence of the analogs (see Table 1). […] Data are expressed as M±SEM. Control represents absence of compound. N=4/analog, *p<0.05
as §4
^bIC50 from full concentration response assay; data from 4-5 independent experiments, each performed in duplicate.

[3] = molecular target: T2, α7-type neuronal nicotinic acetylcholine receptors; test: Inhibition of [^3H]methyllycaconitine (MLA) binding to rat brain membranes

T2 sequence (Q05941 23-502): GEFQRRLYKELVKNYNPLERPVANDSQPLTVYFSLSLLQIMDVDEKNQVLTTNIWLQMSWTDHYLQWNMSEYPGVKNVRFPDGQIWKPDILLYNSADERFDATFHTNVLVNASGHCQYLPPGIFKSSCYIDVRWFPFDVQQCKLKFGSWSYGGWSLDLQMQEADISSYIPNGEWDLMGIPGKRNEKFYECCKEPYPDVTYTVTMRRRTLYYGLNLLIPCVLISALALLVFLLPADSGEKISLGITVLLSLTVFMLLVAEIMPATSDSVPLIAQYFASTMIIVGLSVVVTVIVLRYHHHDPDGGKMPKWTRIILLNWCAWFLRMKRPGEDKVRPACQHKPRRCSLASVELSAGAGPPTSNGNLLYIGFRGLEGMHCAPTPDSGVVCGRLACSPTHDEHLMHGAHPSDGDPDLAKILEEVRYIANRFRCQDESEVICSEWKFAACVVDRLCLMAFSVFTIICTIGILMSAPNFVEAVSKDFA
T1 sequence (P09483 31-630): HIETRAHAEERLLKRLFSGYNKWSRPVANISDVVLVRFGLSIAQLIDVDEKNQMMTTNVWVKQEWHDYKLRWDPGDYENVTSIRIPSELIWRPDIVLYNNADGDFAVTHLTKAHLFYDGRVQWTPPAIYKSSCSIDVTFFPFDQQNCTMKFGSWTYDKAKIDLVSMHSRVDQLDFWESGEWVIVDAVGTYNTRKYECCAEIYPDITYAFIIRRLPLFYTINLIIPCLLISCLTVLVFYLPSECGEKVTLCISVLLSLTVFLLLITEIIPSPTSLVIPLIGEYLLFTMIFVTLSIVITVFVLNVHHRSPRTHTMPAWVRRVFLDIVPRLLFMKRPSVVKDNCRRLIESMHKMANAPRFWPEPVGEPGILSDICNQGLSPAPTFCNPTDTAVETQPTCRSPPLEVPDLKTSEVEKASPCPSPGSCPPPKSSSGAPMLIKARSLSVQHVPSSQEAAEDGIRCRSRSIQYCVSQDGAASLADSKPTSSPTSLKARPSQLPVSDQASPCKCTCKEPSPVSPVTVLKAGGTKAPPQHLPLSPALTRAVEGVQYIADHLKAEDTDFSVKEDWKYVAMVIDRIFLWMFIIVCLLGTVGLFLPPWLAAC
T1 sequence (P12390 25-500): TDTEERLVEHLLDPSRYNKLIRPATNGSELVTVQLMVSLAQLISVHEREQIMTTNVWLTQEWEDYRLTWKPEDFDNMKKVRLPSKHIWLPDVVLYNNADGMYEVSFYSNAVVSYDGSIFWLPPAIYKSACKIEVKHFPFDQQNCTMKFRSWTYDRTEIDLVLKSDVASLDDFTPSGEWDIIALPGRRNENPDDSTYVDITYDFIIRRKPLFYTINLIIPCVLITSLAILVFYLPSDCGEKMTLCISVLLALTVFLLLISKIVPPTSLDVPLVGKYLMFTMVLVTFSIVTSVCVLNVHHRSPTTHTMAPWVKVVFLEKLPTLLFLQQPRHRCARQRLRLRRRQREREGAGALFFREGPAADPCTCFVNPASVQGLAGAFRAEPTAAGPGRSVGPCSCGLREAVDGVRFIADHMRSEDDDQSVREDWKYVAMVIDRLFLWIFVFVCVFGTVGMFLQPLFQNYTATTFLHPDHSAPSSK

Compound | Inhibition of [^3H]Nicotine binding [1] | Inhibition of [^3H]MLA binding [2] | inhibition at 0.1 µM (rat striatal slices) | Ki [3]
Cc1cc[n+](CCCCCc2cc(CCCCC[n+]3ccc(C)cc3)c(CCCCC[n+]3ccc(C)cc3)cc2CCCCC[n+]2ccc(C)cc2)cc1.[Br-].[Br-].[Br-].[Br-] | 12 ± 8.3% | 8.0 ± 5.3% | 46 ± 5% | 
C(#Cc1cc(C#CCCC[n+]2ccc3ccccc3c2)c(C#CCCC[n+]2ccc3ccccc3c2)cc1C#CCCC[n+]1ccc2ccccc2c1)CCC[n+]1ccc2ccccc2c1.[Br-].[Br-].[Br-].[Br-] | 0 ± 0% | 4.9 ± 3.8% | 39 ± 17% | 
α-bungarotoxin |  |  |  | 28.6 ± 5.4 nM
C(#Cc1cc(C#CCCC[n+]2cccc(Cc3ccccc3)c2)c(C#CCCC[n+]2cccc(Cc3ccccc3)c2)cc1C#CCCC[n+]1cccc(Cc2ccccc2)c1)CCC[n+]1cccc(Cc2ccccc2)c1.[Br-].[Br-].[Br-].[Br-] | 2.9 ± 2.9% | 53 ± 3.5% | 17 ± 17% | 
